{"source": "patent US5965598A", "about": "“Zinc-phthalocyanines and corresponding conjugates, their preparation and use in photodynamic therapy and as diagnostic agents” (priority 1997, dated 1999)", "key": {"[1]": {"tested_on": "Staphylococcus aureus (ATCC 6538P)", "assay": "Photoinactivation of microorganisms: Staphylococcus aureus", "assay_type": "cell-based", "settings": "1 μM; 15 mW/cm2, 30 min", "experimental": "(§1) The experimental protocol was the following:\n(§2) Incubation in dark at 37° C. (5 min to 1 hour)."}, "E. Coli (strain 04)": {"tested_on": "E. Coli (strain 04)", "assay": "Photoinactivation of microorganisms: E. coli", "assay_type": "cell-based, Escherichia coli (strain 04)", "settings": "footnote below the P. aeruginosa / E. coli table", "experimental": "as §1, §2"}, "Branhamella catarrhalis": {"tested_on": "Branhamella catarrhalis", "assay": "Photoinactivation of microorganisms: Branhamella catarrhalis", "assay_type": "cell-based", "settings": "footnote", "experimental": "as §1, §2"}}, "data": [{"smiles": "[Zn+2].c1ccc2c(c1)-c1nc-2nc2[n-]c(nc3nc([n-]c4nc(n1)-c1ccccc1-4)-c1ccccc1-3)c1ccccc21", "note": "[ZnPC, ZnPhthalocyanine]", "values": [{"measurement": "Cell mortality", "setting": "[1]", "value": 99.99}, {"measurement": "Photoinactivation activity (in words)", "setting": "E. Coli (strain 04)", "value": "not active"}, {"measurement": "Photoinactivation activity (in words)", "setting": "Branhamella catarrhalis", "value": "not active"}]}]}
